Data published in PMC2895808 (Vaccine, 2010).
Ends that are not written are not given here.

How the values were obtained:
Experiment in all cases: biochemical
HLA A*6802 = HLA A*6802 (Homo sapiens, UniProt P04439, A269V/D140Y/D185E/E176V/E277Q/E87N/F33Y/G231S/I121R/I166T/I218V/L180W/L300P/L318F/N151K/P208A/P217A/Q86R/R138H/R169H/S129P/T345S/V36M)
HLA A*0202 = HLA A*0202 (Homo sapiens, UniProt P04439, D140Y/D185E/D98H/E176V/E277Q/G131W/G231S/I119L/I121R/I166T/I218V/L180W/L300P/L318F/N151K/N90K/P208A/P217A/Q67R/Q86G/Q94H/R138H/R169H/T345S)
HLA A*0203 = HLA A*0203 (Homo sapiens, UniProt P04439, A173T/D140Y/D185E/D98H/E277Q/G131W/G231S/I119V/I121R/I166T/I218V/L180W/L300P/L318F/N151K/N90K/P208A/P217A/Q86G/Q94H/R138H/R169H/T345S)
HLA B*0702 = HLA B*0702 (Homo sapiens, UniProt P01889)
HLA B*5301 = HLA B*5301 (Homo sapiens, UniProt P01889, A329T/A93T/A95T/C349S/D201E/D98Y/E176V/E187L/E204Q/E69T/G107R/I218V/K202T/L105A/L119I/N104I/Q94N/R106L/R155S/R180L/S101N/S121R/S35A/S48A/T118I/V127L/V306I/V36M/Y140S/Y91F)
HLA B*3503 = HLA B*3503 (Homo sapiens, UniProt P01889, A329T/A93T/A95T/C349S/D201E/D98Y/E176V/E187L/E204Q/E69T/I218V/K202T/L119I/Q94N/R155S/R180L/S121R/S35A/S48A/T118I/V127L/V306I/V36M/Y140F/Y91F)
HLA B*3501 = HLA B*3501 (Homo sapiens, UniProt P01889, A329T/A93T/A95T/C349S/D201E/D98Y/E176V/E187L/E204Q/E69T/I218V/K202T/L119I/Q94N/R155S/R180L/S121R/S35A/S48A/T118I/V127L/V306I/V36M/Y140S/Y91F)
HLA B*5101 = HLA B*5101 (Homo sapiens, UniProt P01889, A329T/A93T/A95T/C349S/D138N/D201E/D98Y/E187L/E204Q/E69T/G107R/I218V/K202T/L105A/L119W/N104I/Q94N/R106L/R155S/R180L/S101N/S121T/S35A/S48A/V306I/V36M/Y195H/Y91F)
HLA B*4201 = HLA B*4201 (Homo sapiens, UniProt P01889, D138N/E176V/E187T/K202T/R180D)
HLA B*5401 = HLA B*5401 (Homo sapiens, UniProt P01889, A329T/C349S/D138N/D201E/E176V/E187T/E204Q/E69G/I76V/K202T/L119W/R155S/R180L/S121T/S35A/S48A/V127L/V306I/V36M/Y140L)

CSCC[C@H](NC(=O)[C@H](Cc1ccccc1)NC(=O)[C@@H](NC(=O)[C@@H](NC(=O)[C@H](Cc1ccccc1)NC(=O)[C@@H](NC(=O)[C@@H](N)C(C)C)C(C)C)C(C)C)C(C)C)C(=O)NCC(=O)N[C@H](C(=O)O)C(C)C [Peptide 7103.0001]
IC50 (HLA A*6802): 39 nM | IC50 (HLA A*0202): 3450 nM

CC(C)C[C@H](NC(=O)[C@H](Cc1ccccc1)NC(=O)[C@@H](NC(=O)[C@@H](NC(=O)[C@H](Cc1ccccc1)NC(=O)[C@@H]1CCCN1C(=O)[C@@H](NC(=O)[C@H](CC(C)C)NC(=O)[C@@H](N)Cc1ccccc1)C(C)C)C(C)C)C(C)C)C(=O)O [Peptide 7103.0003]
IC50 (HLA A*6802): 1.5 nM | IC50 (HLA A*0202): < 0.1 nM | IC50 (HLA A*0203): 0.11 nM

HPGSVNEFDF [HF10]
IC50 (HLA B*0702): 3620 nM | IC50 (HLA B*5301): 5520 nM | IC50 (HLA B*3503): 11500 nM | IC50 (HLA B*3501): 2090 nM | IC50 (HLA B*5101): 14700 nM | IC50 (HLA B*4201): 877 nM | IC50 (HLA B*5401): 854 nM
